The source of these data is PubChem BioAssay AID1671282.

In the experiment the target is Tyrosine-protein kinase Fyn (Homo sapiens) (UniProt P06241). The experiment is described as follows: FYN kinase inhibition, dose response, biochemical, Z'-LYTE, FRET readout, direct format (AID 1671282). The settings on record: Z'-LYTE FRET kinase assay, recombinant FYN.
Chain of Tyrosine-protein kinase Fyn (Homo sapiens) (P06241 whole entry, looked up): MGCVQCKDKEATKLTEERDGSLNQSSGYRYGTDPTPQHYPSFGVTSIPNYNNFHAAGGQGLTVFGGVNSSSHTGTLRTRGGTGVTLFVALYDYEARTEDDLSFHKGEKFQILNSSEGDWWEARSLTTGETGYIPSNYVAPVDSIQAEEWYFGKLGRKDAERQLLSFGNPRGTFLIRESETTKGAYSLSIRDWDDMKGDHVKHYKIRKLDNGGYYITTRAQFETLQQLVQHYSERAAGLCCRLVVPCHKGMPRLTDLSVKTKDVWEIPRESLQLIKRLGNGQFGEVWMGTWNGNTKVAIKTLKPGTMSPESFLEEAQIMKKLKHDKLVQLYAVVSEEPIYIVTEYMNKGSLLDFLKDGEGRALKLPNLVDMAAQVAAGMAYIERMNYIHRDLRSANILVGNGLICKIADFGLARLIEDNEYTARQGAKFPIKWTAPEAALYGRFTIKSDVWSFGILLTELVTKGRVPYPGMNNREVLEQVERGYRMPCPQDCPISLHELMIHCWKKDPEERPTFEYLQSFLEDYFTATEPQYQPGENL

`COc1cc2ncnc(Nc3cccc(Cl)c3)c2cc1OC`: the IC50 (as a rule, the point on the concentration scale where inhibition reaches its midpoint) is 8.78 µM.
